Converted amounts (≈) assume the structure as drawn. Like-named read-outs stand apart in the source and are kept apart here.
Tests used:
[1] = Determination of the capacity factor (logk) by RP-HPLC; assay type: physicochemical; details: reversed-phase chromatographic capacity factor, eluent pH 7.0
Experimental: Determination of the capacity factor. […] The same analytical method was used with modified eluents: eluent A was 20 mM triethylamine with phosphoric acid (pH 7.0), and eluent B was acetonitrile without additives. The method time was slightly extended, with a 1-minute longer gradient, resulting in an 8-minute program. The capacity factor was calculated with Equation 3: […]
where k is the capacity factor, tR is the retention time (min) of the compounds and t0 is the dead-time of the column (min).

[2] = Kinetic aqueous solubility assay; assay type: physicochemical; parameters: key to Kinetic solubility (no value): –: Compounds with no value were under the detection limit; details: for Kinetic solubility in words: wording of the text, outside the class key; for solubility kinetic at 2 h: PBS buffer, pH 6.5, aqueous buffer, kinetic from dmso stock; for Kinetic solubility (no value): PBS pH 6.5, 2 hours, dash = under the detection limit
Experimental: Kinetic aqueous solubility assay. All compounds were dissolved in DMSO to make stock solutions at 10 mM concentration. […] 5 μL of the stock solutions was pipetted into a 96-well plate containing 495 μL PBS (pH 6.5) in each well to achieve 100 μM target concentration (1% DMSO). […] The plate was then sealed and shaken for 2 hours at room temperature. Each compound was investigated in 3 replicates. After 2 hours, the samples were filtered on a MultriscreenHTS filter plate (MSSLBPC, polycarbonate membrane, Merck KGaA, Darmstadt, Germany) by a Millipore Vacuum Manifold (Merck KGaA, Darmstadt, Germany). Before analyzing, 20 vol % acetonitrile was added to each well to avoid sample precipitation during HPLC analysis.
(§1) Analytical methods. […] For a 7-minute long gradient program, eluents A (0.1% formic acid in water) and B (0.1% formic acid in acetonitrile) were used as follows: initial conditions with 30% B were kept for 1 minute, then 90% B was achieved within 3 minutes, kept for further 1 minute, finally the initial condition was adjusted and equilibrated for further 2 minutes. 5-Point calibration series were measured from each compound resulting in R^2 ≈ 0.9990–0.9999.

[3] = In vitro gastrointestinal permeability assay (GI PAMPA); assay type: in vitro ADME; details: for GI PAMPA membrane retention / GI PAMPA penetration: donor pH 6.5, acceptor pH 7.4, 1% DMSO, 37 °C, 4 hours, mean of 3 replicates; for GI PAMPA permeability in words / GI PAMPA membrane retention (MR) in words: wording of the text, outside the class key; for Papp at 4 h, 100 µM: PAMPA
Experimental: In vitro gastrointestinal permeability assay. […] The artificial membrane was fabricated by dissolving ʟ-α-phosphatidylcholine (16 mg) and cholesterol (4 mg) in a solvent mixture of chloroform, hexane and dodecane (5/70/25 vol %). Each well of the PAMPA donor plate (MAIPNTR, PVDF membrane, Merck KGaA, Darmstadt, Germany) was coated with 5 μL lipid solution. Thereafter the donor plate was fitted into the acceptor plate (MSSACCEPTOR, Merck KGaA, Darmstadt, Germany) already containing 300 μL PBS (pH 7.4) solutions with 1% DMSO. Finally, 150 μL of the initial solutions was pipetted into the donor plate, the plate sandwich was covered with a wet paper tissue and with a plate lid to avoid evaporation, and the system was incubated at 37 °C for 4 hours. Then samples were taken from the donor and acceptor wells and analyzed along with the initial solutions by HPLC.
[1] Pe=−2.303/A⋅(t−τss)⋅(1/1+ra)⋅lg[−ra+(1+ra/1−MR)⋅cD(t)/cD(0)]
[2] MR=1−cD(t)/cD(0)−VAcA(t)/VDcD(0)
where A is the filter area (0.24 cm^2), t is the incubation time (s), τss is the time to reach steady-state (s), ra is the sink asymmetry ratio approximated with a value of 10^−14, VD and VA are the volumes in the donor (0.15 mL) and the acceptor phase (0.3 mL), cD(t) is the concentration of the compound in the donor phase at time point t (mol/L), cD(0) is the concentration of the compound in the donor phase at time point zero (initial solutions, mol/L), cA(t) is the concentration of the compound in the acceptor phase at time point t (mol/L), cA(0) is the concentration of the compound in the acceptor phase at time point zero (mol/L).
as §1

[4] = Metabolic stability assay in human liver microsome fractions; assay type: in vitro ADME; details: NADPH, 37 °C; for half-life at 10 µM / CLint scaled at 10 µM: pH 7.4, pooled human liver microsomes; for half-life at 10 µM: read-out: HLM t1/2; for CLint scaled at 10 µM: read-out: HLM Clint (converted)
Experimental: Metabolic stability assay in human liver microsome fractions. The metabolic stability of the test compounds was assessed in vitro using pooled liver microsome fractions derived from humans (Xenotech LLC). The assay was conducted in a 96-well plate format according to a standardized protocol, utilizing cofactor-supplemented incubation systems, mainly to mimic phase I oxidative metabolic pathways. Human liver microsome (HLM) fractions were thawed on ice and diluted in 0.05 M potassium phosphate buffer (pH 7.4) to a final protein concentration of 1.25 mg/mL. Test compounds were dissolved in DMSO to create stock solutions of 5 mM. The drug concentration in the final assays was 10 μM. The assay was performed in triplicate. Reaction mixtures containing the diluted HLM fractions and test compounds were pre-incubated for 5 minutes at 37 °C while shaking at 450 rpm. The reaction was initiated by adding the 0.05 M NADPH cofactor mixture to the wells (100 µL per well) for the “with cofactors” conditions or by adding phosphate buffer for the “without cofactors” control. Aliquots (100 µL) were taken at zero time and at pre-defined time points of 30 and 60 minutes and quenched with an equal volume of cold acetonitrile. The samples were centrifuged at 2600 RCF for 10 minutes to pellet proteins. Supernatants were transferred to LC vials and stored at −20 °C until LC–MS/MS analysis. The concentration of the parent compound remaining in each sample was determined using liquid chromatography coupled with tandem mass spectrometry (LC–MS/MS). The percentage of the remaining substrate was calculated relative to the time-zero sample. The natural logarithm of the percentage remaining was plotted against incubation time to determine the first-order elimination rate constant (k) using linear regression. The half-life (t₁/₂) was calculated using Equation 4: […]
Intrinsic clearance (Clint) was calculated and scaled to in vivo conditions using Equation 5:
[5] Clint=ln2/t1/2×liver weight (g)/standard body weight (kg)×incubation volume (mL)/HLM protein/well×HLM protein (mg)/gram of liver
where the HLM protein per gram of liver was equal to 25 and the liver weight per standard body was equal to 49. Testosterone was included as a positive control to confirm metabolic competence of the HLM fractions, with and without cofactors.
HPLC–MS analysis. The semi-quantitative determination of test compounds was carried out using a Waters Xevo G2-XS QToF mass spectrometer equipped with an electrospray ionization (ESI) source operating in positive ion mode. Chromatographic separation was performed on a Waters XBridgeTM Premier BEH C18 (3.5 μm, 4.6 × 150 mm) column maintained at 40 °C. The mobile phase consisted of water with 0.1% formic acid (A) and acetonitrile with 0.1% formic acid (B). The injection volume was 10 µL. The autosampler was maintained at 5 °C. The gradient elution program shown in Table 4 was applied at a constant flow rate of 1.0 mL/min.
The mass spectrometer operated in sensitivity mode with a capillary voltage of 3.0 kV, source temperature was 100 °C, and desolvation temperature was 350 °C. The cone gas flow was set to 0 L/h and desolvation gas flow to 800 L/h. LockSpray calibration was performed using leucine enkephalin as the reference compound (m/z 556.2771), introduced at 15 µL/min. Data acquisition was performed in MSE mode with alternating low collision energy (6 eV) and ramped high-energy collision dissociation (20–40 eV). The mass range was set from 50 to 1200 Da. Each function used a scan time of 0.5 s. Data were acquired in the continuum mode. Instrument mass accuracy calibration was verified using sodium formate. The system was controlled with a MassLynx v4.2 SCN996 software.

[5] = PBS pH 6.5, 100 µM target concentration (1% DMSO), 2 hours, room temperature, mean of 3 replicates
[6] = PBS pH 6.5, 100 µM target concentration (1% DMSO), 2 hours, room temperature, mean of 3 replicates, read-out: Kinetic solubility
[7] = class in words, read-out: Kinetic solubility category
[8] = class in words, read-out: GI PAMPA permeability (Pe) category
[9] = colour key of Figure 5, read-out: Permeability category (Pe), colouring of Figure 5
[10] = scaled to in vivo conditions (Equation 5)

logk (−) pH 7.0 [1] | GI PAMPA membrane retention [3] [%] | GI PAMPA penetration [3] | solubility kinetic at 2 h [2, 6] [µM] | SMILES | also measured
0.645 |  |  |  | CN1N=C(c2ccccc2)c2ccc3c4c([nH]c3c2S1(=O)=O)CCC4 [Compound 3i] | Kinetic solubility [2, 5]: 1.7 ± 0.3 µM
0.547 | 61.0 ± 5.1 | 33.6 ± 3.0 10^−6 cm/s |  | CC/C(C)=N/Nc1cccc2c1S(=O)(=O)N(C)N=C2C [(E)-7a] | Kinetic solubility [2, 5]: 20.5 ± 0.8 µM; Kinetic solubility in words [2]: moderate to good; GI PAMPA membrane retention (MR) category ([3]; class in words): moderate (moderate under 80%); GI PAMPA permeability (Pe) category ([3]; class in words): good (good above 10 × 10^−6 cm/s); HLM Clint ([4]; pooled human liver microsomes, 10 μM, scaled to in vivo conditions (Equation 5)): 1.2 ± 0.042 mL/h/kg; HLM t1/2 ([4]; pooled human liver microsomes, 10 μM, triplicate): 34 ± 1 min
0.645 |  |  | 0.7 ± 0.02 (≈ 0.24 µg/mL) | CCC=NNc1cccc2c1S(=O)(=O)N(C)N=C2c1ccccc1 [crude 7h] | 
0.625 |  |  |  | CCC(CC)=NNc1cccc2c1S(=O)(=O)N(C)N=C2C [Compound 7b] | Kinetic solubility [2, 5]: 6.2 ± 0.3 µM
0.614 |  |  | 8.6 ± 0.3 (≈ 2.8 µg/mL) | Cc1c[nH]c2c3c(ccc12)C(c1ccccc1)=NN(C)S3(=O)=O [Compound 3h, 2,7-Dimethyl-4-phenyl-2,9-dihydro[1,2,3]thiadiazino[5,6-g]indole 1,1-dioxide] | 
0.685 |  |  |  | CN1N=C(c2ccccc2)c2ccc3c([nH]c4c5ccccc5ccc34)c2S1(=O)=O [Compound 10b] | Kinetic solubility (no value) ([2]; room temperature): –
0.603 | 98.5 ± 0.1 | 0.0 10^−6 cm/s | 31 ± 2.2 (≈ 9.03 µg/mL) | CCc1[nH]c2c3c(ccc2c1C)C(C)=NN(C)S3(=O)=O [Compound 3b] | solubility kinetic at 2 h [2, 7]: > 30 µM; GI PAMPA membrane retention (MR) category ([3]; class in words): extremely high (extremely high above 90%); GI PAMPA permeability in words [3]: nearly zero
0.626 | 97.5 ± 0.3 | 0.0 10^−6 cm/s | 86.3 ± 3.9 (≈ 27.7 µg/mL) | CC1=NN(C)S(=O)(=O)c2c(NN=C3CCCCC3)cccc21 [Compound 7e, 8-(2-Cyclohexylidenehydrazino)-2,4-dimethyl-2H-1,2,3-benzothiadiazine 1,1-dioxide] | solubility kinetic at 2 h [2, 7]: > 30 µM; GI PAMPA membrane retention (MR) category ([3]; class in words): extremely high (extremely high above 90%); GI PAMPA permeability in words [3]: nearly zero
0.677 |  |  |  | CCC(CC)=NNc1cccc2c1S(=O)(=O)N(C)N=C2c1ccccc1 [Compound 7g] | Kinetic solubility (no value) ([2]; room temperature): –
0.516 | 82.3 ± 0.8 | 7.1 ± 1.7 10^−6 cm/s | 51.4 ± 1.3 (≈ 15.6 µg/mL) | CC1=NN(C)S(=O)(=O)c2c1ccc1c3c([nH]c21)CCCC3 [Compound 3e, 2,4-Dimethyl-2,7,8,9,10,11-hexahydro[1,2,3]thiadiazino[6,5-a]carbazole 1,1-dioxide] | solubility kinetic at 2 h [2, 7]: > 30 µM; Papp at 4 h, 100 µM [3, 8]: < 10 ×10⁻⁶ cm/s; Papp at 4 h, 100 µM [3, 9]: < 10 ×10⁻⁶ cm/s; GI PAMPA membrane retention (MR) in words [3]: high; half-life at 10 µM ([4]; triplicate): 100 ± 23 min
0.580 |  |  | 1.5 ± 0.09 (≈ 0.416 µg/mL) | CC1=NN(C)S(=O)(=O)c2c1ccc1c(C)c(C)[nH]c21 [Compound 3a] | 
0.629 |  |  | 5 ± 0.3 (≈ 1.7 µg/mL) | Cc1[nH]c2c3c(ccc2c1C)C(c1ccccc1)=NN(C)S3(=O)=O [Compound 3f] | 
0.637 |  |  |  | CC1=NN(C)S(=O)(=O)c2c1ccc1c2[nH]c2c3ccccc3ccc12 [Compound 10a] | Kinetic solubility (no value) ([2]; room temperature): –
0.591 |  |  | 3.2 ± 0.2 (≈ 0.926 µg/mL) | CC1=NN(C)S(=O)(=O)c2c1ccc1c3c([nH]c21)CCC3 [Compound 3d] | 
0.567 | 39.8 ± 0.2 | 30.3 ± 4.2 10^−6 cm/s | 41.4 ± 0.9 (≈ 10.9 µg/mL) | CC1=NN(C)S(=O)(=O)c2c1ccc1c(C)c[nH]c21 [Compound 3c] | solubility kinetic at 2 h [2, 7]: > 30 µM; Kinetic solubility in words [2]: moderate to good; Papp at 4 h, 100 µM [3, 8]: > 10 ×10⁻⁶ cm/s; Papp at 4 h, 100 µM [3, 9]: > 10 ×10⁻⁶ cm/s; GI PAMPA membrane retention (MR) category ([3]; class in words): moderate (moderate under 80%); CLint scaled at 10 µM [4, 10]: 1.42 mL/h/kg; half-life at 10 µM ([4]; triplicate): 29 ± 2 min
0.599 | 93.3 ± 0.2 | 7.6 ± 2.9 10^−6 cm/s | 46.9 ± 2.8 (≈ 14.4 µg/mL) | CC1=NN(C)S(=O)(=O)c2c(NN=C3CCCC3)cccc21 [Compound 7d] | solubility kinetic at 2 h [2, 7]: > 30 µM; Papp at 4 h, 100 µM [3, 8]: < 10 ×10⁻⁶ cm/s; Papp at 4 h, 100 µM [3, 9]: < 10 ×10⁻⁶ cm/s; GI PAMPA membrane retention (MR) in words [3]: high; CLint scaled at 10 µM [4, 10]: 1.34 mL/h/kg; half-life at 10 µM ([4]; triplicate): 31 ± 3 min
0.660 |  |  |  | CN1N=C(c2ccccc2)c2ccc3c4c([nH]c3c2S1(=O)=O)CCCC4 [Compound 3j] | Kinetic solubility (no value) ([2]; room temperature): –

Source: publication PMC12557438, “Thiadiazino-indole, thiadiazino-carbazole and benzothiadiazino-carbazole dioxides: synthesis, physicochemical and early ADME characterization of representatives of new tri-, tetra- and pentacyclic ring systems and their intermediates” (Beilstein Journal of Organic Chemistry, 2025)
